Data from patent US20070088052A1, “Sulfonamide derivatives as 5ht7 receptor antagonists” (Aston University, priority 2003, published 2007).
Marks after values point to notes of the source that are not given here.

How the values were obtained:
5-HT7 receptor = target: T1, 5-HT7 receptor (Homo sapiens, UniProt P34969); assay: Receptor binding assay, [3]H-5-CT; conditions: for 5HT-7 receptor binding data using [3]H-5-CT: stepwise screen from 10 μM, active samples diluted and re-screened, radioligand 25 pM, dropout < 35; for IC50: [3]H-5-CT binding
T1 construct: Tissues were homogenized in ice cold sucrose; from tissue; host or cells: unspecified tissue, membrane homogenate
T1 sequence (P34969 whole entry): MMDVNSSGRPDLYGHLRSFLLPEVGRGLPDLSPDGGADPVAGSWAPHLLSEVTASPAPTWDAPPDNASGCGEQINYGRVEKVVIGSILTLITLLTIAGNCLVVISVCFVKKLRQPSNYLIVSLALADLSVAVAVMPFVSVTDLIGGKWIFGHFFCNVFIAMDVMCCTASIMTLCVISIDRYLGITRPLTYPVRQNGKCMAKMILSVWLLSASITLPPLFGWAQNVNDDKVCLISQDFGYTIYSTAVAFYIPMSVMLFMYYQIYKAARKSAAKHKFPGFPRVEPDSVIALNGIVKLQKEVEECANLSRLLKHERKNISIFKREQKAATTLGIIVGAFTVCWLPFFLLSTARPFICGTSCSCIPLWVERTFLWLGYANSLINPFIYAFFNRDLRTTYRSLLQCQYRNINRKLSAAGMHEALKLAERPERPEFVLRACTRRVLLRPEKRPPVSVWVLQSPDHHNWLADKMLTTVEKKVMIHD
Protocol: Receptor Binding Assay, ^[3]H-5-CT
The combinatorial library was screened using radiolabeled 5-carboxamidotryptamine, a selective 5-HT-7 agonist. Tissues were homogenized in ice cold sucrose (0.32 M, 25 ml) for 15 strokes at 500 rpm and centrifuged at 13000 rpm for 10 mins. The supernatant was re-centrifuged at 13000 rpm for 20 mins. The resulting pellet was re-dispersed to the required volume of buffer at 500 rpm and stored in aliquots at […].
Binding was achieved using radioligand 5-carboxamidotryptamine at 25 pM. The samples were incubated {with membranes (0.1 mg/ml)} in 20 mM Hepes, 1 mM EGTA, 5 mM MgCl2, 150 mM NaCl, at pH 6.5 for 2 hrs at RT and then centrifuged at 11000 rpm for 5 minutes. The membrane pellets were washed twice with water and the bound radioactivity was measured in a Packard Cobra Auto-gamma counter (B5005). All binding assays were carried out with SB-258719 as standard. Controls (no compound) were also added. All samples were made in duplicate and repeated twice. All compounds were initially screened for percentage inhibition at 10 μM. Samples showing an average inhibition of […] were diluted to 1 μM and re-screened and if active diluted again.

mice [1] = assay: Despair swim test (immobility time test); format: in vivo; conditions: immobility in 5 min test, drug one hour prior
Source text: Despair Swim Test (Immobility Time Test)
This reflects a state of despair, which can be reduced by several agents, which are therapeutically effective in human depression. Antidepressant drugs have the effect of reducing the duration of immobility.
Mice were brought into the laboratory at least one day before the experiment and were housed in separate cages, with free access to food and water. The mice were individually forced to swim inside a vertical Plexiglas cylinder (height: 40 cm; diameter: 18 cm, containing 15 cm of water maintained at 30° C.). After 10 min in the water the mice were removed and allowed to dry in a heated enclosure (32° C.) before being returned to their home cages. They were again replaced in the cylinder 24 hrs later and the total duration of the immobility was measured during a 5 min test. Floating behaviour during this 5 min period was reproducible in different groups of mice. An animal was judged to be immobile whenever it remained floating passively in the water in a slightly hunched but upright position, its nose just above the surface. The test drug or the standard were administered one hour prior to testing.

mice [2] = assay: Tail suspension test; format: in vivo; conditions: interperitoneal 30 min prior, immobility over 5 minutes
Protocol: Male mice weighting 20-25 g were used preferentially. The were housed in plastic cages for at least 10 days prior to testing in a 12 hours light cycle with food and water freely available.
Animals were transported from the housing room to the testing area in their own cages and were allowed to adapt to the new environment for 1 hour before testing. Groups of 6 animals were treated with the test compounds or the vehicle by interperitoneal injection 30 min prior to testing. For the test the mice were suspended on the edge of a shelf 58 cm above a table top by adhesive tape, placed approximately 1 cm from the tip of the tail. The duration of immobility was recorded for a period of 5 minutes. Mice were considered immobile when they hang passively and the time was recorded.

Compound	5HT-7 receptor binding data using [3]H-5-CT (5-HT7 receptor)	also measured
CC1CCN(CCC(C)N(Cc2ccccc2)S(=O)(=O)c2ccc3ccccc3c2)CC1 (centres unmarked) [E1]	E1 * (1 micromolar)	
CC1CCN(CCC(C)N(Cc2ccccc2)S(=O)(=O)c2cccc3ccccc23)CC1 (centres unmarked) [D1]	D1 * (1 micromolar)	
CC1CCN(CCC(C)N(c2ccccn2)S(=O)(=O)c2cccc3ccccc23)CC1 (centres unmarked) [D13]	D13 ** (100 nM)	
COCCN(C(C)CCN1CCC(C)CC1)S(=O)(=O)c1ccc2ccccc2c1 (centres unmarked) [E3]	E3 * (1 micromolar)	
COc1ccccc1N(C(C)CCN1CCC(C)CC1)S(=O)(=O)c1cccc(C)c1 (centres unmarked) [B16]	B16 ** (100 nM)	
COc1cccc(N(C(C)CCN2CCC(C)CC2)S(=O)(=O)c2cccc(C)c2)c1 (centres unmarked) [B23]	B23 *** (10 nM)	
COc1ccc(S(=O)(=O)N(c2ccc(Cl)cc2)C(C)CCN2CCC(C)CC2)cc1 (centres unmarked) [C6]	C6 ** (100 nM)	
Cc1cccc(S(=O)(=O)N(CCN(C)C)C(C)CCN2CCC(C)CC2)c1 (centres unmarked) [B9]	B9 * (1 micromolar)	
COc1ccc(S(=O)(=O)N(c2cccc3ccccc23)C(C)CCN2CCC(C)CC2)cc1 (centres unmarked) [C24]	C24 * (1 micromolar)	
COc1cccc(N(C(C)CCN2CCC(C)CC2)S(=O)(=O)c2cccc3ccccc23)c1 (centres unmarked) [D23]	D23 *** (10 nM)	IC50 (5-HT7 receptor): 0.034 µM

Further lines, with some results ahead:

5HT-7 receptor binding data using [3]H-5-CT (5-HT7 receptor)	Compound	also measured
G22 * (1 micromolar)	CC(=O)c1ccc(N(C(C)CCN2CCC(C)CC2)S(=O)(=O)Cc2ccccc2)cc1 (centres unmarked) [G22]	
I8 ** (100 nM)	CC1CCN(CCC(C)N(C)S(=O)(=O)c2cccc([N+](=O)[O-])c2)CC1 (centres unmarked) [I8]	
J20 *** (10 nM)	Cc1ccc(N(C(C)CCN2CCC(C)CC2)S(=O)(=O)c2ccc(-c3ccccc3)cc2)cc1 (centres unmarked) [J20]	IC50 (5-HT7 receptor): 0.061 µM; Forced swim test (mice [1]; 1 mg/kg): 42 ± 6 s; Forced swim test (mice [1]; 5 mg/kg): 28 ± 4 s; Tail suspension (mice [2]; 1 mg/kg): 130 ± 11 s; Tail suspension (mice [2]; 5 mg/kg): 92 ± 9 s
N20 ** (100 nM)	Cc1ccc(N(C(C)CCN2CCC(C)CC2)S(=O)(=O)c2cccc(C(F)(F)F)c2)cc1 (centres unmarked) [N20]	
G10 * (1 micromolar)	CCCCCCCCCCCCN(C(C)CCN1CCC(C)CC1)S(=O)(=O)Cc1ccccc1 (centres unmarked) [G10]	
M9 * (1 micromolar)	CC1CCN(CCC(C)N(CCN(C)C)S(=O)(=O)c2ccc(Br)cc2)CC1 (centres unmarked) [M9]	
J23 *** (10 nM)	COc1cccc(N(C(C)CCN2CCC(C)CC2)S(=O)(=O)c2ccc(-c3ccccc3)cc2)c1 (centres unmarked) [J23]	IC50 (5-HT7 receptor): 0.039 µM
I23 ** (100 nM)	COc1cccc(N(C(C)CCN2CCC(C)CC2)S(=O)(=O)c2cccc([N+](=O)[O-])c2)c1 (centres unmarked) [I23]	
I21 ** (100 nM)	CC1CCN(CCC(C)N(c2ccccc2)S(=O)(=O)c2cccc([N+](=O)[O-])c2)CC1 (centres unmarked) [I21]	
N3 ** (100 nM)	COCCN(C(C)CCN1CCC(C)CC1)S(=O)(=O)c1cccc(C(F)(F)F)c1 (centres unmarked) [N3]	
G23 *** (10 nM)	COc1cccc(N(C(C)CCN2CCC(C)CC2)S(=O)(=O)Cc2ccccc2)c1 (centres unmarked) [G23]	
I1 ** (100 nM)	CC1CCN(CCC(C)N(Cc2ccccc2)S(=O)(=O)c2cccc([N+](=O)[O-])c2)CC1 (centres unmarked) [I1]	
N16 ** (100 nM)	COc1ccccc1N(C(C)CCN1CCC(C)CC1)S(=O)(=O)c1cccc(C(F)(F)F)c1 (centres unmarked) [N16]	
I24 *** (10 nM)	CC1CCN(CCC(C)N(c2cccc3ccccc23)S(=O)(=O)c2cccc([N+](=O)[O-])c2)CC1 (centres unmarked) [I24]	
G24 * (1 micromolar)	CC1CCN(CCC(C)N(c2cccc3ccccc23)S(=O)(=O)Cc2ccccc2)CC1 (centres unmarked) [G24]	
O24 *** (10 nM)	COc1ccc(S(=O)(=O)N(c2cccc3ccccc23)C(C)CCN2CCC(C)CC2)cc1OC (centres unmarked) [O24]	IC50 (5-HT7 receptor): 0.083 µM; Forced swim test (mice [1]; 1 mg/kg): 69 ± 7 s; Forced swim test (mice [1]; 5 mg/kg): 51 ± 11 s; Tail suspension (mice [2]; 1 mg/kg): 81 ± 8 s; Tail suspension (mice [2]; 5 mg/kg): 74 ± 9 s
